Experiments:
Format in all cases: cell-based, human
[1] = test system: U-118 Glioblastoma cell line; experiment: DIMSCAN cytotoxicity, fenretinide + L-threo-sphinganines 3:1 (Example B5); parameters: key to CI (Combination Index): CI<0.9 synergy, 0.9-1.1 additive, >1.1 antagonistic; settings: U-118 MG, 96 h
Experimental: (§1) Cytotoxicity Assay—Once again, cytotoxicity is determined using the DIMSCAN assay system (R. Proffitt et al., Cytometry 24, 204-213 (1996); T. Frgala et al., Mol Cancer Ther. 6:886-97, 2007). The system employs digital imaging microscopy to quantify viable cells, which selectively accumulate fluorescein diacetate to become brightly fluorescent. The system is capable of measuring cytotoxicity over a 4-5 log dynamic range by quenching the residual fluorescence of dead and dying cells with eosin Y and quantifying the total fluorescence of viable cells using digital thresholding. Measured fluorescence is directly proportionate to the number of viable cells. A comparison of the total fluorescence of a drug-treated cell population to the fluorescence of a similar number of untreated cells yields a survival fraction. In brief, 2000 to 10,000 cells/well (depending on size and growth rates) are replicate plated into 60 wells of a 96-well tissue culture plate in 0.1 mL of whole medium and allowed to attach overnight. Drug(s) are then added in 0.05 mL of whole medium to the final concentrations indicated. Drugs (fenretinide, and various chain length L-threo-sphinganines) were tested both as single agents and in a 3:1 ratio of fenretinide:sphinganine. C18-L-threo-sphinganine, or “safingol,” was also tested and results shown for reference. There are 12 wells treated per drug concentration. Twelve wells receive drug vehicle-only to the appropriate final concentration and serve as controls for the plate. Cells are incubated for 96 hours at 37° C. in ambient air with 5% CO2. Fluorescein diacetate is then added to each well in 0.05 mL media to a final concentration of 8 microgram/mL. Cells are incubated for a further 15 minutes at 37° C. and 0.03 mL of 0.5% eosin Y is added to each well. Total fluorescence of viable cells is then measured by digital imaging microscopy. Results were graphed as the ratio of the fluoresecence of drug-treated wells to non-drug treated control wells (i.e., Survival Fraction). All tests were performed at least twice. Representative results are shown.
(§2) The Combination Index (CI) is a term to describe mathematical modeling of the pharmacologic effects on cytotoxicity (cell death) of two drugs in combination based. Cytotoxic “synergy” is defined as a cell death affect which is greater than would be expected from a simple product of the single agent cytotoxicities alone (i.e. an “additive” effect). By Chou-Talalay analysis, a CI<0.9 on a Fraction Affected (“Fa”, i.e. fraction of cells killed) indicates synergy, with smaller numbers indicating greater synergy; a CI of 0.9-1.1 signifies an additive or near-additive effect; and a CI>1.1 means the drug combination is antagonistic.
Fenretinide and L-threo-sphinganines tested in human Glioblastoma (brain cancer) cell line, U-118.

[2] = test system: A-2058 melanoma cell line; experiment: DIMSCAN cytotoxicity, fenretinide + L-threo-sphinganines 3:1 (Example B11); settings: 96 h
Experimental: as §1, §2
Fenretinide and L-threo-sphinganines tested in human melanoma (skin cancer) cell line, A-2058.

[3] = test system: U-266 Multiple Myeloma cell line; experiment: DIMSCAN cytotoxicity, fenretinide + L-threo-sphinganines 3:1 (Example B3); settings: 96 h
Experimental: as §1, §2
Fenretinide and L-threo-sphinganines tested in human Multiple Myeloma (a cancer of the blood and bone marrow) cell line, U-266.

[4] = test system: SJ-GBM2 Glioblastoma multiforme cell line; experiment: DIMSCAN cytotoxicity, fenretinide + L-threo-sphinganines 3:1 (Example B7); parameters: key to CI (Combination Index): Chou-Talalay CI: <0.9 synergy, 0.9-1.1 additive, >1.1 antagonism; settings: 96 h
Experimental: as §1, §2
Fenretinide and L-threo-sphinganines tested in human Glioblastoma multiforme (brain cancer) cell line, SJ-GBM2.

[5] = test system: PANC-1 pancreatic adenocarcinoma cell line; experiment: DIMSCAN cytotoxicity, fenretinide + L-threo-sphinganines 3:1 (Example B18)
Experimental: as §1, §2
Fenretinide and L-threo-sphinganines tested in human pancreatic adenocarcinoma (pancreas cancer) cell line, PANC-1.

[6] = test system: RPMI-8226 Multiple Myeloma cell line; experiment: DIMSCAN cytotoxicity, fenretinide + L-threo-sphinganines 3:1 (Example B2); settings: 96 h
Experimental: as §1, §2
Fenretinide and L-threo-sphinganines tested in human Multiple Myeloma (a cancer of the blood and bone marrow) cell line, RPMI-8226.

[7] = test system: A-549 lung adenocarcinoma cell line; experiment: DIMSCAN cytotoxicity, fenretinide + L-threo-sphinganines 3:1 (Example B13); settings: 96 h
Experimental: as §1, §2
Fenretinide and L-threo-sphinganines tested in human lung adenocarcinoma (lung cancer) cell line, A-549.

[8] = test system: PC-3 prostate adenocarcinoma cell line; experiment: DIMSCAN cytotoxicity, fenretinide + L-threo-sphinganines 3:1 (Example B17)
Experimental: as §1, §2
Fenretinide and L-threo-sphinganines tested in human prostate adenocarcinoma (prostate cancer) cell line, PC-3.

[9] = 4-HPR 1.5 μM + L-threo-sphinganine 0.5 μM
[10] = 4-HPR 3 μM + L-threo-sphinganine 1 μM
[11] = 4-HPR 6 μM + L-threo-sphinganine 2 μM
[12] = 4-HPR 9 μM + L-threo-sphinganine 3 μM

Structure (SMILES): CCCCCCCCCCC[C@H](O)[C@@H](N)CO [C14]
- CI (Combination Index) [1, 9]: 1.4
- Fa (fraction affected) [1, 9]: 0.318
- CI (Combination Index) [1, 10]: 1.2
- Fa (fraction affected) [1, 10]: 0.586
- CI (Combination Index) [1, 11]: 1.2
- Fa (fraction affected) [1, 11]: 0.814
- CI (Combination Index) [1, 12]: 0.4
- Fa (fraction affected) [1, 12]: 0.988
- CI (Combination Index) [2, 9]: 1.1
- Fa (fraction affected) [2, 9]: 0.045
- CI (Combination Index) [2, 10]: 1.2
- Fa (fraction affected) [2, 10]: 0.088
- CI (Combination Index) [2, 11]: 1.4
- Fa (fraction affected) [2, 11]: 0.193
- CI (Combination Index) [2, 12]: 1.3
- Fa (fraction affected) [2, 12]: 0.650
- CI (Combination Index) [3, 9]: 0.9
- Fa (fraction affected) [3, 9]: 0.163
- CI (Combination Index) [3, 10]: 1.1
- Fa (fraction affected) [3, 10]: 0.315
- CI (Combination Index) [3, 11]: 1.0
- Fa (fraction affected) [3, 11]: 0.687
- CI (Combination Index) [3, 12]: 1.3
- Fa (fraction affected) [3, 12]: 0.76
- CI (Combination Index) [4, 9]: 5.0
- Fa (fraction affected) [4, 9]: 0.007
- CI (Combination Index) [4, 10]: 1.2
- Fa (fraction affected) [4, 10]: 0.209
- CI (Combination Index) [4, 11]: 1.2
- Fa (fraction affected) [4, 11]: 0.598
- CI (Combination Index) [4, 12]: 1.4
- Fa (fraction affected) [4, 12]: 0.820
- CI [5, 9]: 3.2
- Fa [5, 9]: 0.054
- CI [5, 10]: 2.6
- Fa [5, 10]: 0.176
- CI [5, 11]: 2.1
- Fa [5, 11]: 0.450
- CI [5, 12]: 0.7
- Fa [5, 12]: 0.883
- CI (Combination Index) [6, 9]: 0.8
- Fa (fraction affected) [6, 9]: 0.606
- CI (Combination Index) [6, 10]: 1.1
- Fa (fraction affected) [6, 10]: 0.747
- CI (Combination Index) [6, 11]: 1.0
- Fa (fraction affected) [6, 11]: 0.93
- CI (Combination Index) [6, 12]: 0.4
- Fa (fraction affected) [6, 12]: 0.994
- CI (Combination Index) [7, 9]: 1
- Fa (fraction affected) [7, 9]: 0.01
- CI (Combination Index) [7, 10]: 1.0
- Fa (fraction affected) [7, 10]: 0.02
- CI (Combination Index) [7, 11]: 1.1
- Fa (fraction affected) [7, 11]: 0.072
- CI (Combination Index) [7, 12]: 0.5
- Fa (fraction affected) [7, 12]: 0.461
- CI [8, 9]: 0.7
- Fa [8, 9]: 0.192
- CI [8, 10]: 1.0
- Fa [8, 10]: 0.283
- CI [8, 11]: 1.3
- Fa [8, 11]: 0.426
- CI [8, 12]: 1.2
- Fa [8, 12]: 0.634

Structure (SMILES): CCCCCCCCCCCC[C@H](O)[C@@H](N)CO [C15]
- CI (Combination Index) [1, 9]: 0.4
- Fa (fraction affected) [1, 9]: 0.371
- CI (Combination Index) [1, 10]: 0.5
- Fa (fraction affected) [1, 10]: 0.577
- CI (Combination Index) [1, 11]: 0.4
- Fa (fraction affected) [1, 11]: 0.847
- CI (Combination Index) [1, 12]: 0.1
- Fa (fraction affected) [1, 12]: 0.989
- CI (Combination Index) [2, 9]: 0.5
- Fa (fraction affected) [2, 9]: 0.053
- CI (Combination Index) [2, 10]: 0.9
- Fa (fraction affected) [2, 10]: 0.106
- CI (Combination Index) [2, 11]: 1.6
- Fa (fraction affected) [2, 11]: 0.262
- CI (Combination Index) [2, 12]: 1.7
- Fa (fraction affected) [2, 12]: 0.867
- CI (Combination Index) [3, 9]: 1.2
- Fa (fraction affected) [3, 9]: 0.085
- CI (Combination Index) [3, 10]: 1.5
- Fa (fraction affected) [3, 10]: 0.241
- CI (Combination Index) [3, 11]: 1.2
- Fa (fraction affected) [3, 11]: 0.697
- CI (Combination Index) [3, 12]: 0.9
- Fa (fraction affected) [3, 12]: 0.929
- CI (Combination Index) [4, 9]: 1.7
- Fa (fraction affected) [4, 9]: 0.086
- CI (Combination Index) [4, 10]: 1.1
- Fa (fraction affected) [4, 10]: 0.301
- CI (Combination Index) [4, 11]: 0.9
- Fa (fraction affected) [4, 11]: 0.765
- CI (Combination Index) [4, 12]: 1.0
- Fa (fraction affected) [4, 12]: 0.953
- CI [5, 9]: 2.9
- Fa [5, 9]: 0.078
- CI [5, 10]: 2.2
- Fa [5, 10]: 0.205
- CI [5, 11]: 1.7
- Fa [5, 11]: 0.486
- CI [5, 12]: 0.2
- Fa [5, 12]: 0.978
- CI (Combination Index) [6, 9]: 1.0
- Fa (fraction affected) [6, 9]: 0.518
- CI (Combination Index) [6, 10]: 1.1
- Fa (fraction affected) [6, 10]: 0.75
- CI (Combination Index) [6, 11]: 0.5
- Fa (fraction affected) [6, 11]: 0.978
- CI (Combination Index) [6, 12]: 0.2
- Fa (fraction affected) [6, 12]: 0.998
- CI (Combination Index) [7, 9]: 1.9
- Fa (fraction affected) [7, 9]: 0.000
- CI (Combination Index) [7, 10]: 2.1
- Fa (fraction affected) [7, 10]: 0.000
- CI (Combination Index) [7, 11]: 0.9
- Fa (fraction affected) [7, 11]: 0.044
- CI (Combination Index) [7, 12]: 0.8
- Fa (fraction affected) [7, 12]: 0.342
- CI [8, 9]: 0.6
- Fa [8, 9]: 0.200
- CI [8, 10]: 0.9
- Fa [8, 10]: 0.287
- CI [8, 11]: 1.2
- Fa [8, 11]: 0.417
- CI [8, 12]: 1.0
- Fa [8, 12]: 0.621
